# Measurements from PMC10439230 (Scientific Reports, 2023).
# Legend:
# [1] = system: MOLT-3 (T cell acute lymphoblastic leukemia); assay: Cytotoxic activity assay (XTT); assay type: cell-based, human; conditions: for IC50: Homo sapiens, MOLT-3, 48 h exposure, XTT, read-out: Cell lines, IC50 (μM) MOLT-3; for Selectivity Index (SI) values MOLT-3: SI = IC50 normal cell (MRC-5)/ IC50 cancer cell
# Excerpt: (§1) The synthetic compounds were screened for their cytotoxic activity using standard MTT or XTT methods[30] against a panel of nine human cancer cell lines and one normal cell line, including MDA-MB-231 (triple-negative breast cancer), T-47D (hormone-dependent breast cancer), HepG2 (hepatocellular carcinoma), A549 (lung adenocarcinoma), H69AR (multidrug-resistant small cell lung carcinoma), HuCCA-1 (cholangiocarcinoma derived from a patient), HeLa (cervical carcinoma), and two leukemia cell lines, HL-60 (acute promyelocytic leukemia) and MOLT-3 (T cell acute lymphoblastic leukemia). MRC-5 normal embryonic lung fibroblast cell line was used to represent normal cells. Chemotherapeutic drugs, doxorubicin and etoposide, were used as positive controls.
# (§2) The cells were seeded into 96-well plates (100 µL for adherent cells and 75 µL for suspended cells) at a density of 5000–20,000 cells per well, depending on their growth rates. Adherent and suspended cells were then allowed to grow at 37 °C with 95% humidity and 5% CO2 for 24 h and 30 min, respectively. The cytotoxicity assay was initiated by adding an equal volume of cell culture medium containing tested compound at predetermined concentrations. Following 48 h of exposure, cell viability was determined using MTT assay for adherent cells[51],[52]or XTT assay for suspeended cells. Briefly, for adherent cells, 100 µL of the MTT reagent was added to each well, and the microtiter plates were further incubated for 2.5–4 h. The medium was subsequently replaced with 100 µL of DMSO to dissolve the purple formazan before the absorbance at 550 nm was measured using a microplate reader (a SpectraMax Plus 384) with a reference wavelength of 650 nm. For suspended cells, 75 µL of the XTT reagent was added to each well, and the cells were further incubated for 4 h. Afterwards, the absorbance of orange formazan at 492 nm was measured with a reference wavelength of 690 nm using a microplate reader.
# [2] = system: HL-60 (acute promyelocytic leukemia); assay: Cytotoxic activity assay (XTT); assay type: cell-based, human; conditions: for IC50: Homo sapiens, HL-60, 48 h exposure, XTT, read-out: Cell lines, IC50 (μM) HL-60; for Selectivity Index (SI) values HL-60: SI = IC50 normal cell (MRC-5)/ IC50 cancer cell
# Excerpt: as §1, §2
# [3] = system: A549 (lung adenocarcinoma); assay: Cytotoxic activity assay (MTT); assay type: cell-based, human; conditions: for IC50: Homo sapiens, A549, 48 h exposure, MTT, read-out: Cell lines, IC50 (μM) A549; for Selectivity Index (SI) values A549: SI = IC50 normal cell (MRC-5)/ IC50 cancer cell
# Excerpt: as §1, §2
# [4] = system: H69AR (multidrug-resistant small cell lung carcinoma); assay: Cytotoxic activity assay (MTT); assay type: cell-based, human; conditions: for IC50: Homo sapiens, H69AR, 48 h exposure, MTT, read-out: Cell lines, IC50 (μM) H69AR; for Selectivity Index (SI) values H69AR: SI = IC50 normal cell (MRC-5)/ IC50 cancer cell
# Excerpt: as §1, §2
# [5] = system: HuCCA-1 (cholangiocarcinoma derived from a patient); assay: Cytotoxic activity assay (MTT); assay type: cell-based, human; conditions: for IC50: Homo sapiens, HuCC-A1, 48 h exposure, MTT, read-out: Cell lines, IC50 (μM) HuCCA-1; for Selectivity Index (SI) values HuCCA-1: SI = IC50 normal cell (MRC-5)/ IC50 cancer cell
# Excerpt: as §1, §2
# [6] = system: MDA-MB-231 (triple-negative breast cancer); assay: Cytotoxic activity assay (MTT); assay type: cell-based, human; conditions: for IC50: Homo sapiens, MDA-MB-231, 48 h exposure, MTT, read-out: Cell lines, IC50 (μM) MDA-MB-231; for Selectivity Index (SI) values MDA-MB-231: SI = IC50 normal cell (MRC-5)/ IC50 cancer cell
# Excerpt: as §1, §2
# [7] = system: T-47D (hormone-dependent breast cancer); assay: Cytotoxic activity assay (MTT); assay type: cell-based, human; conditions: for IC50: Homo sapiens, T47D, 48 h exposure, MTT, read-out: Cell lines, IC50 (μM) T47-D; for Selectivity Index (SI) values T47-D: SI = IC50 normal cell (MRC-5)/ IC50 cancer cell
# Excerpt: as §1, §2
# [8] = system: HeLa (cervical carcinoma); assay: Cytotoxic activity assay (MTT); assay type: cell-based, human; conditions: for IC50: Homo sapiens, 48 h exposure, MTT, read-out: Cell lines, IC50 (μM) HeLa; for Selectivity Index (SI) values HeLa: SI = IC50 normal cell (MRC-5)/ IC50 cancer cell
# Excerpt: as §1, §2
# [9] = system: HepG2 (hepatocellular carcinoma); assay: Cytotoxic activity assay (MTT); assay type: cell-based, human; conditions: for IC50: Homo sapiens, HepG2, 48 h exposure, MTT, read-out: Cell lines, IC50 (μM) HepG2; for Selectivity Index (SI) values HepG2: SI = IC50 normal cell (MRC-5)/ IC50 cancer cell
# Excerpt: as §1, §2
# [10] = system: MRC-5 normal embryonic lung fibroblast cell line; assay: Cytotoxic activity assay (MTT), normal cells; assay type: cell-based; conditions: Homo sapiens, MRC5, 48 h exposure, read-out: Cell lines, IC50 (μM) MRC-5
# Excerpt: as §1, §2
Structure (SMILES),IC50 [1] [µM],Selectivity Index (SI) values MOLT-3 [1],IC50 [2] [µM],Selectivity Index (SI) values HL-60 [2],IC50 [3] [µM],Selectivity Index (SI) values A549 [3],IC50 [4] [µM],Selectivity Index (SI) values H69AR [4],IC50 [5] [µM],Selectivity Index (SI) values HuCCA-1 [5],IC50 [6] [µM],Selectivity Index (SI) values MDA-MB-231 [6],IC50 [7] [µM],Selectivity Index (SI) values T47-D [7],IC50 [8] [µM],Selectivity Index (SI) values HeLa [8],IC50 [9] [µM],Selectivity Index (SI) values HepG2 [9],IC50 [10] [µM]
"C=C1CC[C@H]2C(C)(C)CCC[C@]2(C)[C@H]1CC/C(C)=C/C(=O)N(C)OC [Compound 4o, (E)-N-Methoxy-N,3-dimethyl-5-((1S,4aS,8aS)-5,5,8a-trimethyl-2-methylene-decahydronaphthalen-1-yl)pent-2-enamide]",29.8 ± 1.89,1.6,27.9 ± 1.99,1.7,82.4 ± 0.99,0.6,115.1 ± 0.64,0.4,54.3 ± 1.18,0.9,38.8 ± 0.44,1.2,46.4 ± 1.73,1.0,52.86 ± 0.02,0.9,57.3 ± 1.82,0.8,47.2 ± 0.96
"C=C1CC[C@H]2C(C)(C)CCC[C@]2(C)[C@H]1CC/C(C)=C/C(=O)NCc1ccccn1 [Compound 4g, (E)-3-Methyl-N-(pyridin-2-ylmethyl)-5-((1S,4aS,8aS)-5,5,8a-trimethyl-2-methylenedecahydronaphthalen-1-yl)pent-2-enamide]",20.9 ± 0.99,2.1,22.7 ± 0.36,2.0,38.2 ± 0.49,1.2,92.7 ± 1.18,0.5,46.2 ± 0.6,1.0,35.1 ± 0.98,1.3,55.1 ± 2.8,0.8,46.7 ± 1.03,1.0,41.7 ± 1.46,1.1,44.8 ± 1.62
"C=C1CCC2C(C)(C)CCC[C@]2(C)[C@H]1CC/C(C)=C/C=O (stereo partly drawn) [Compound 3, (E)-3-methyl-5-((1S,8aS)-5,5,8a-trimethyl-2-methylenedecahydronaphthalen-1-yl)pent-2-enal]",37.7 ± 3.2,3.3,56.4 ± 1.37,2.2,142 ± 2.69,0.9,> 120,0.7,131.4 ± 1.14,1.0,64.1 ± 1.8,2.0,93.9 ± 1.54,1.3,77.4 ± 1.47,1.6,122.2 ± 1.03,1.0,125.8 ± 0.46
"C=C1CC[C@H]2C(C)(C)CCC[C@]2(C)[C@H]1CC/C(C)=C/C(=O)NN [Compound 4k, (E)-3-Methyl-5-((1S,4aS,8aS)-5,5,8a-trimethyl-2-methylenedecahydro-naphthalen-1-yl)pent-2-enehydrazide]",29.3 ± 2.43,5.0,108 ± 1.53,1.4,> 120,0.9,> 120,0.9,130 ± 2,1.1,98.5 ± 3.01,1.5,> 120,0.9,118.78 ± 0.06,1.2,> 120,0.9,145.8 ± 0.34
